From EP4818168A1, “FUSED RING COMPOUND, PHARMACEUTICAL COMPOSITION THEREOF AND USE THEREOF” (priority 2023, dated 2025)
Where two headings read alike, the source gives them in different places.

Target: T1, AURKA (Homo sapiens, UniProt O14965)
T1 construct: endogenous in cells; host or cells: Jurkat cells
T1 sequence (O14965 1-403): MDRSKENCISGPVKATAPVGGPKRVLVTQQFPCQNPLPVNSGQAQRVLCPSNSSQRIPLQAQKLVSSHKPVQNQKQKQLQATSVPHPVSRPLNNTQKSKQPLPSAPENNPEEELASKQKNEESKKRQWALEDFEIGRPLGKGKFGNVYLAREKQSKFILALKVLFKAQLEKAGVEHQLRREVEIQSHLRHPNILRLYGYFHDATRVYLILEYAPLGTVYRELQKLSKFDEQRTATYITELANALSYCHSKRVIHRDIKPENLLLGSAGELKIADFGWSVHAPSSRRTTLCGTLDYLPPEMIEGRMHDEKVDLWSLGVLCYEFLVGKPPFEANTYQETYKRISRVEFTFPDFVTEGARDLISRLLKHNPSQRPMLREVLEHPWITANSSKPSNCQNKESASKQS
Type: cell-based
Conditions: Jurkat cells, 24 h
From the text: WB is a classical biochemical experimental method used to detect the abundance of a target protein in a sample of cells or biological tissue. It relies on specific antigen-antibody binding to detect protein signals from the sample processed by gel electrophoresis: the protein specifically binds to a primary antibody at an epitope; the primary antibody is then conjugated with a secondary antibody to amplify the signal cascade; the signal is read out by chemiluminescent or fluorescent detection. The intracellular protein content is ultimately characterized by the intensity of the optical signals. […] The DC50 value can be calculated by curve fitting of the protein WB exposure signals.
The experimental procedure is as follows: • 1. Seed Jurkat cells into a 12-well plate at 1×10^6 cells/500 µL/well. • 2. Mix the culture medium with the compound to a concentration that is twice the desired final concentration. […] Transfer the cell suspension to a centrifuge tube. Rinse the 12-well plate with PBS and then transfer the PBS from the plate to the same centrifuge tube. Centrifuge at 3000 rpm for 5 min at room temperature. Aspirate the supernatant using a vacuum pump. […] Lyse on ice for 20 min. • 4. Centrifuge the lysed sample at 13000 rpm for 20 min at 4°C. Mix the supernatant with 5× protein loading buffer. Boil at 100°C for 5 min and then cool. Store the denatured protein sample at -20°C. • 5. […] Run electrophoresis at 80 V for 20 min, and then at 120 V constant voltage for 60 min. • 6. Transfer the protein onto a nitrocellulose membrane in an ice bath at 250 mA constant current for 90 min. • 7. […] Incubate with a primary antibody overnight at 4°C. • 9. […] Incubate with a secondary antibody for 1-2 h at room temperature. • 10. […] Expose and image the membrane using a LICOR Odyssey DLx imager.

Structure (SMILES) | Percentage of AURKA Degradation Induced by 100 nM Compound in Jurkat Cells (Table 1) | Percentage of AURKA Degradation Induced by 1 µM Compound in Jurkat Cells (Table 1) | Percentage of AURKA Degradation Induced by 100 nM Compound in Jurkat Cells (Table 2) | Percentage of AURKA Degradation Induced by 1 µM Compound in Jurkat Cells (Table 2)
COc1cc(Nc2ncc3c(n2)-c2ccc(Cl)cc2C(c2c(F)cccc2OC)=NC3)ccc1C(=O)N[C@H]1C[C@@H](C#Cc2cccc3c2CN(C2CCC(=O)NC2=O)C3=O)C1 (relative stereo) [Compound A6] | ++ (30% < Degradation ≤ 70%) | + (Degradation ≤ 30%) |  | 
COc1cc(Nc2ncc3c(n2)-c2ccc(Cl)cc2C(c2c(F)cccc2OC)=NC3)ccc1C(=O)NCCOCCNc1cccn2c(N3CCC(=O)NC3=O)cnc12 [Compound A20] | ++ (30% < Degradation ≤ 70%) | ++ (30% < Degradation ≤ 70%) |  | 
COc1cc(Nc2ncc3c(n2)-c2ccc(Cl)cc2C(c2c(F)cccc2OC)=NC3)ccc1C(=O)NCCN1CCN(c2ccc(-n3ccc(=O)[nH]c3=O)cn2)CC1 [Compound A31] | ++ (30% < Degradation ≤ 70%) | ++ (30% < Degradation ≤ 70%) |  | 
O=C1CCN(c2ccc(C#C[C@H]3C[C@H](NC(=O)c4ccc(Nc5ncc6c(n5)-c5ccc(Cl)cc5C(c5c(F)cccc5F)=NC6)cc4)C3)cc2)C(=O)N1 [Compound A53] | ++ (30% < Degradation ≤ 70%) | ++ (30% < Degradation ≤ 70%) |  | 
O=C1CCN(c2ccc(N3CC4(CC(NC(=O)c5ccc(Nc6ncc7c(n6)-c6ccc(Cl)cc6C(c6c(F)cccc6F)=NC7)cc5)C4)C3)nc2)C(=O)N1 [Compound A60] | +++ (Degradation > 70%) | +++ (Degradation > 70%) |  | 
O=C1CCN(c2cccc(N3CC4(CC(NC(=O)c5ccc(Nc6ncc7c(n6)-c6ccc(Cl)cc6C(c6c(F)cccc6F)=NC7)cc5)C4)C3)c2)C(=O)N1 [Compound A62] | ++ (30% < Degradation ≤ 70%) | ++ (30% < Degradation ≤ 70%) |  | 
CN1C(=O)CCN(c2ccc(N3CCC4(CC3)CC(NC(=O)c3ccc(Nc5ncc6c(n5)-c5ccc(Cl)cc5C(c5c(F)cccc5F)=NC6)cc3)C4)nc2)C1=O [Compound A82] |  |  | + (Degradation ≤ 30%) | + (Degradation ≤ 30%)
O=C1CCN(c2ccc(N3CC(N4CC(NC(=O)c5ccc(Nc6ncc7c(n6)-c6ccc(Cl)cc6C(c6c(F)cccc6F)=NC7)cc5)C4)C3)nc2)C(=O)N1 [Compound A84] |  |  | ++ (30% < Degradation ≤ 70%) | +++ (Degradation > 70%)
O=C1CCN(C23CCC(N4CCN(CCNC(=O)c5ccc(Nc6ncc7c(n6)-c6ccc(Cl)cc6C(c6c(F)cccc6F)=NC7)cc5)CC4)(CC2)CC3)C(=O)N1 [Compound A91] |  |  | + (Degradation ≤ 30%) | + (Degradation ≤ 30%)
O=C1CCN(C23CC(N4CCN(CCNC(=O)c5ccc(Nc6ncc7c(n6)-c6ccc(Cl)cc6C(c6c(F)cccc6F)=NC7)cc5)CC4)(C2)C3)C(=O)N1 [Compound A92] |  |  | + (Degradation ≤ 30%) | + (Degradation ≤ 30%)
O=C1CCN(c2ccc(N3CCC4(CC3)CC(NC(=O)c3ccc(Nc5ncc6c(n5)-c5ccc(Cl)cc5C(c5c(F)cccc5F)=NC6)cc3)C4)c(F)c2)C(=O)N1 [Compound A93] |  |  | ++ (30% < Degradation ≤ 70%) | +++ (Degradation > 70%)
O=C1CCN(c2ccc(N3CCN(CCNc4ccc(Nc5ncc6c(n5)-c5ccc(Cl)cc5C(c5c(F)cccc5F)=NC6)cc4)CC3)cc2)C(=O)N1 [Compound A108] |  |  | + (Degradation ≤ 30%) | + (Degradation ≤ 30%)
O=C1CCN(c2ccc(N3CCN(CCn4ccnc4-c4ccc(Nc5ncc6c(n5)-c5ccc(Cl)cc5C(c5c(F)cccc5F)=NC6)cc4)CC3)cc2)C(=O)N1 [Compound A111] |  |  | + (Degradation ≤ 30%) | + (Degradation ≤ 30%)
O=C1CCN(c2ccc([C@H]3C[C@H](N4CC(NC(=O)c5ccc(Nc6ncc7c(n6)-c6ccc(Cl)cc6C(c6c(F)cccc6F)=NC7)cc5)C4)C3)nc2)C(=O)N1 [Compound A113] |  |  | +++ (Degradation > 70%) | ++ (30% < Degradation ≤ 70%)
O=C1CCN(c2ccc([C@H]3C[C@@H](N4CC(NC(=O)c5ccc(Nc6ncc7c(n6)-c6ccc(Cl)cc6C(c6c(F)cccc6F)=NC7)cc5)C4)C3)nc2)C(=O)N1 [Compound A114] |  |  | +++ (Degradation > 70%) | +++ (Degradation > 70%)
Cc1ccc(N2CCN(CCC#Cc3cccc(Nc4ncc5c(n4)-c4ccc(Cl)cc4C(c4c(F)cccc4F)=NC5)c3)CC2)cc1N1CCC(=O)NC1=O [Compound A117] |  |  | ++ (30% < Degradation ≤ 70%) | ++ (30% < Degradation ≤ 70%)
O=C1CCN(c2ccc(N3CCC4(CC3)CC(NC(=O)c3ccc(Nc5ncc6c(n5)-c5ccc(Cl)cc5C(c5ccccc5Cl)=NC6)cc3)C4)nc2)C(=O)N1 [Compound A119] |  |  | +++ (Degradation > 70%) | +++ (Degradation > 70%)
O=C1CCN(c2cccc(N3CCN(CC#Cc4ccc(Nc5ncc6c(n5)-c5ccc(Cl)cc5C(c5c(F)cccc5F)=NC6)cc4)CC3)c2)C(=O)N1 [Compound A123] |  |  | + (Degradation ≤ 30%) | + (Degradation ≤ 30%)
O=C1CCN(c2ccc(C#CCN3CCn4c(cnc4-c4ccc(Nc5ncc6c(n5)-c5ccc(Cl)cc5C(c5c(F)cccc5F)=NC6)cc4)C3)cc2)C(=O)N1 [Compound A139] |  |  | +++ (Degradation > 70%) | +++ (Degradation > 70%)
O=C1CCN(c2cnc(N3CCC(N4CCN(c5ccc(Nc6ncc7c(n6)-c6ccc(Cl)cc6C(c6c(F)cccc6F)=NC7)cc5)C(=O)C4)CC3)s2)C(=O)N1 [Compound A154] |  |  | +++ (Degradation > 70%) | ++ (30% < Degradation ≤ 70%)
O=C1CCN(c2ccc(N3CCC(Cn4cnc(-c5ccc(Nc6ncc7c(n6)-c6ccc(Cl)cc6C(c6c(F)cccc6F)=NC7)cc5)c4)CC3)nc2)C(=O)N1 [Compound A159] |  |  | +++ (Degradation > 70%) | +++ (Degradation > 70%)
O=C1CCN(c2ccc(N3CC(Cn4cnc(-c5ccc(Nc6ncc7c(n6)-c6ccc(Cl)cc6C(c6c(F)cccc6F)=NC7)cc5)c4)C3)nc2)C(=O)N1 [Compound A160] |  |  | ++ (30% < Degradation ≤ 70%) | ++ (30% < Degradation ≤ 70%)
Cc1c(N2CCC(C#Cc3cccc(Nc4ncc5c(n4)-c4ccc(Cl)cc4C(c4c(F)cccc4F)=NC5)c3)CC2)cccc1N1CCC(=O)NC1=O [Compound A161] |  |  | + (Degradation ≤ 30%) | ++ (30% < Degradation ≤ 70%)
Cc1c(N2CCN(CCc3cccc(Nc4ncc5c(n4)-c4ccc(Cl)cc4C(c4c(F)cccc4F)=NC5)c3)CC2)cncc1N1CCC(=O)NC1=O [Compound A162] |  |  | ++ (30% < Degradation ≤ 70%) | ++ (30% < Degradation ≤ 70%)
Cc1c(N2CCC3(CC2)CN(Cc2cccc(Nc4ncc5c(n4)-c4ccc(Cl)cc4C(c4c(F)cccc4F)=NC5)c2)C3)cccc1N1CCC(=O)NC1=O [Compound A163] |  |  | ++ (30% < Degradation ≤ 70%) | + (Degradation ≤ 30%)
